# In patent US12077503B2, “Substituted cyclic amides and their use as herbicides” (FMC CORPORATION, priority 2015, dated 2024):
# Experiments:
# Type in all cases: in vivo
# [1] = system: Galium (catchweed bedstraw, Galium aparine); assay: Test C preemergence; conditions: for Plant response rating (scale of 0 to 100), Galium: 31 g ai/ha, 0 is no effect, 100 is complete control; for Plant response rating, Galium: scale 0 to 100, 0 no effect, 100 complete control
# Summary of the method: (§1)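 Seeds in loam-sand soil treated preemergence, or plants in peat-based medium sprayed postemergence at 2–18 cm (1- to 4-leaf stage), with compound in a non-phytotoxic solvent mixture containing surfactant. Greenhouse-held 13–15 d, then visually rated against controls on a 0–100 scale (0 = no effect, 100 = complete control); dash = not tested.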
# [2] = system: barnyardgrass (Echinochloa crus-galli); assay: Test C preemergence; conditions: for Plant response rating (scale of 0 to 100), Barnyardgrass: 31 g ai/ha, 0 is no effect, 100 is complete control; for Plant response rating, Barnyardgrass: scale 0 to 100, 0 no effect, 100 complete control
# Summary of the method: as §1
# [3] = system: crabgrass, large (large crabgrass, Digitaria sanguinalis); assay: Test C preemergence; conditions: for Plant response rating (scale of 0 to 100), Crabgrass, Large: 31 g ai/ha, 0 is no effect, 100 is complete control; for Plant response rating, Crabgrass, Large: scale 0 to 100, 0 no effect, 100 complete control
# Summary of the method: as §1
# [4] = system: nutsedge, yellow (yellow nutsedge, Cyperus esculentus); assay: Test C preemergence; conditions: for Plant response rating (scale of 0 to 100), Nutsedge, Yellow: 31 g ai/ha, 0 is no effect, 100 is complete control; for Plant response rating, Nutsedge, Yellow: scale 0 to 100, 0 no effect, 100 complete control
# Summary of the method: as §1
# [5] = system: ragweed (common ragweed, Ambrosia elatior); assay: Test C preemergence; conditions: for Plant response rating (scale of 0 to 100), Ragweed: 31 g ai/ha, 0 is no effect, 100 is complete control; for Plant response rating, Ragweed: scale 0 to 100, 0 no effect, 100 complete control
# Summary of the method: as §1
# [6] = system: ryegrass, Italian (Italian ryegrass, Lolium multiflorum); assay: Test C preemergence; conditions: for Plant response rating (scale of 0 to 100), Ryegrass, Italian: 31 g ai/ha, 0 is no effect, 100 is complete control; for Plant response rating, Ryegrass, Italian: scale 0 to 100, 0 no effect, 100 complete control
# Summary of the method: as §1
# soybean (Glycine max) = assay: Test C preemergence; conditions: for Plant response rating (scale of 0 to 100), Soybean: 31 g ai/ha, 0 is no effect, 100 is complete control; for Plant response rating, Soybean: scale 0 to 100, 0 no effect, 100 complete control
# Summary of the method: as §1
# [7] = system: velvetleaf (Abutilon theophrasti); assay: Test C preemergence; conditions: for Plant response rating (scale of 0 to 100), Velvetleaf: 31 g ai/ha, 0 is no effect, 100 is complete control; for Plant response rating, Velvetleaf: scale 0 to 100, 0 no effect, 100 complete control
# Summary of the method: as §1
# [8] = system: barnyardgrass (Echinochloa crus-galli); assay: Test F flooded paddy test; design: key: 0 = no effect, 100 = complete control; conditions: Flood
# Text: (§2) Plant species in the flooded paddy test consisted of one stand of 9 or 10 water seeded rice seedlings (Rice, W. S. Jap, Oryza sativa cv. ‘Japonica—M202’ or Rice, W. S. Ind, ‘Indica’), and two stands of 3 or 4 transplanted rice seedlings (Oryza sativa cv. ‘Japonica—M202’), Monochoria (Monochoria vaginalis), sedge, umbrella (small-flower umbrella sedge, Cyperus difformis), hardstem bulrush (Scirpus juncoides), redstem (purple redstem, Ammannia coccinea), rice flatsedge (Cyperus iria), bearded sprangletop (Leptochloa fascicularis), barnyardgrass (Echinochloa crus-galli), waterplantain (common waterplantain, Alisma plantago-aquatica), and late watergrass (Echinochloa oryzicola) grown to the 2 to 2.5 leaf stage for testing. Potted plants were grown in a greenhouse with day/night temperature settings of 30/27° C., and supplemental balanced lighting was provided to maintain a 16-hour photoperiod. At time of treatment, test pots were flooded to 3 cm above the soil surface, treated by application of test compounds directly to the paddy water, and then maintained at that water depth for the duration of the test. Effects of treatments on rice and weeds were visually evaluated by comparison to untreated controls after 21 d. Plant response ratings, summarized in Table F, are based on a scale of 0 to 100 where 0 is no effect and 100 is complete control. A dash (-) response means no test result.
# [9] = system: bearded sprangletop (Leptochloa fascicularis); assay: Test F flooded paddy test; design: key: 0 = no effect, 100 = complete control; conditions: Flood
# Text: as §2
# [10] = system: late watergrass (Echinochloa oryzicola); assay: Test F flooded paddy test; design: key: 0 = no effect, 100 = complete control; conditions: Flood
# Text: as §2
# [11] = system: rice flatsedge (Cyperus iria); assay: Test F flooded paddy test; design: key: 0 = no effect, 100 = complete control; conditions: Flood
# Text: as §2
# [12] = system: sedge, umbrella (small-flower umbrella sedge, Cyperus difformis); assay: Test F flooded paddy test; design: key: 0 = no effect, 100 = complete control; conditions: Flood
# Text: as §2
# [13] = system: transplanted rice seedlings (Oryza sativa cv. ‘Japonica—M202’); assay: Test F flooded paddy test; design: key: 0 = no effect, 100 = complete control; conditions: Flood
# Text: as §2
# [14] = system: water seeded rice seedlings (Rice, W. S. Jap, Oryza sativa cv. ‘Japonica—M202’); assay: Test F flooded paddy test; design: key: 0 = no effect, 100 = complete control; conditions: Flood
# Text: as §2
structure (smiles),measurement,setting,value
"CN1C[C@H](c2ccc(C(F)(F)F)cc2)[C@@H](C(=O)Nc2ccccc2F)C1=O [Compound 622, (3S,4S)—N-(2-fluorophenyl)-1-methyl-2-oxo-4-[4-(trifluoromethyl)phenyl]-3-pyrrolidinecarboxamide]","Plant response rating (scale of 0 to 100), Galium",[1],80
same,"Plant response rating, Galium",[1]; 62 g ai/ha,90
same,"Plant response rating, Galium",[1]; 125 g ai/ha,90
same,"Plant response rating, Galium",[1]; 250 g ai/ha,90
same,"Plant response rating (scale of 0 to 100), Barnyardgrass",[2],90
same,"Plant response rating, Barnyardgrass",[2]; 62 g ai/ha,95
same,"Plant response rating, Barnyardgrass",[2]; 125 g ai/ha,90
same,"Plant response rating, Barnyardgrass",[2]; 250 g ai/ha,95
same,"Plant response rating (scale of 0 to 100), Crabgrass, Large",[3],100
same,"Plant response rating, Crabgrass, Large",[3]; 62 g ai/ha,95
same,"Plant response rating, Crabgrass, Large",[3]; 125 g ai/ha,100
same,"Plant response rating, Crabgrass, Large",[3]; 250 g ai/ha,100
same,"Plant response rating (scale of 0 to 100), Nutsedge, Yellow",[4],0
same,"Plant response rating, Nutsedge, Yellow",[4]; 62 g ai/ha,0
same,"Plant response rating, Nutsedge, Yellow",[4]; 125 g ai/ha,0
same,"Plant response rating, Nutsedge, Yellow",[4]; 250 g ai/ha,0
same,"Plant response rating (scale of 0 to 100), Ragweed",[5],45
same,"Plant response rating, Ragweed",[5]; 62 g ai/ha,70
same,"Plant response rating, Ragweed",[5]; 125 g ai/ha,85
same,"Plant response rating, Ragweed",[5]; 250 g ai/ha,85
same,"Plant response rating (scale of 0 to 100), Ryegrass, Italian",[6],25
same,"Plant response rating, Ryegrass, Italian",[6]; 62 g ai/ha,50
same,"Plant response rating, Ryegrass, Italian",[6]; 125 g ai/ha,35
same,"Plant response rating, Ryegrass, Italian",[6]; 250 g ai/ha,70
same,"Plant response rating (scale of 0 to 100), Soybean",soybean (Glycine max),0
same,"Plant response rating, Soybean",soybean (Glycine max); 62 g ai/ha,20
same,"Plant response rating, Soybean",soybean (Glycine max); 125 g ai/ha,85
same,"Plant response rating, Soybean",soybean (Glycine max); 250 g ai/ha,45
same,"Plant response rating (scale of 0 to 100), Velvetleaf",[7],0
same,"Plant response rating, Velvetleaf",[7]; 62 g ai/ha,25
same,"Plant response rating, Velvetleaf",[7]; 125 g ai/ha,70
same,"Plant response rating, Velvetleaf",[7]; 250 g ai/ha,70
"CN1C[C@H](c2ccc(F)c(F)c2)[C@@H](C(=O)Nc2cccc(F)c2F)C1=O [Compound 639, (3S,4S)—N-(2,3-difluorophenyl)-4-(3,4-difluorophenyl)-1-methyl-2-oxo-3-pyrrolidinecarboxamide]","Plant response rating (scale of 0 to 100), Galium",[1],85
same,"Plant response rating, Galium",[1]; 62 g ai/ha,80
same,"Plant response rating, Galium",[1]; 125 g ai/ha,85
same,"Plant response rating, Galium",[1]; 250 g ai/ha,95
same,"Plant response rating (scale of 0 to 100), Barnyardgrass",[2],90
same,"Plant response rating, Barnyardgrass",[2]; 62 g ai/ha,95
same,"Plant response rating, Barnyardgrass",[2]; 125 g ai/ha,95
same,"Plant response rating, Barnyardgrass",[2]; 250 g ai/ha,100
same,"Plant response rating (scale of 0 to 100), Crabgrass, Large",[3],98
same,"Plant response rating, Crabgrass, Large",[3]; 62 g ai/ha,98
same,"Plant response rating, Crabgrass, Large",[3]; 125 g ai/ha,100
same,"Plant response rating, Crabgrass, Large",[3]; 250 g ai/ha,100
same,"Plant response rating (scale of 0 to 100), Nutsedge, Yellow",[4],0
same,"Plant response rating, Nutsedge, Yellow",[4]; 62 g ai/ha,0
same,"Plant response rating, Nutsedge, Yellow",[4]; 125 g ai/ha,0
same,"Plant response rating, Nutsedge, Yellow",[4]; 250 g ai/ha,20
same,"Plant response rating (scale of 0 to 100), Ragweed",[5],5
same,"Plant response rating, Ragweed",[5]; 62 g ai/ha,60
same,"Plant response rating, Ragweed",[5]; 125 g ai/ha,75
same,"Plant response rating, Ragweed",[5]; 250 g ai/ha,80
same,"Plant response rating (scale of 0 to 100), Ryegrass, Italian",[6],25
same,"Plant response rating, Ryegrass, Italian",[6]; 62 g ai/ha,60
same,"Plant response rating, Ryegrass, Italian",[6]; 125 g ai/ha,60
same,"Plant response rating, Ryegrass, Italian",[6]; 250 g ai/ha,70
same,"Plant response rating (scale of 0 to 100), Soybean",soybean (Glycine max),0
same,"Plant response rating, Soybean",soybean (Glycine max); 62 g ai/ha,0
same,"Plant response rating, Soybean",soybean (Glycine max); 125 g ai/ha,10
same,"Plant response rating, Soybean",soybean (Glycine max); 250 g ai/ha,20
same,"Plant response rating (scale of 0 to 100), Velvetleaf",[7],0
same,"Plant response rating, Velvetleaf",[7]; 62 g ai/ha,30
same,"Plant response rating, Velvetleaf",[7]; 125 g ai/ha,65
same,"Plant response rating, Velvetleaf",[7]; 250 g ai/ha,55
same,Plant response rating: Barnyardgrass,[8]; 32 g ai/ha,90
same,Plant response rating: Barnyardgrass,[8]; 64 g ai/ha,100
same,Plant response rating: Barnyardgrass,[8]; 125 g ai/ha,100
same,Plant response rating: Barnyardgrass,[8]; 250 g ai/ha,100
same,"Plant response rating: Sprangletop, Brdd.",[9]; 32 g ai/ha,85
same,"Plant response rating: Sprangletop, Brdd.",[9]; 64 g ai/ha,85
same,"Plant response rating: Sprangletop, Brdd.",[9]; 125 g ai/ha,95
same,"Plant response rating: Sprangletop, Brdd.",[9]; 250 g ai/ha,98
same,"Plant response rating: Watergrass, Late",[10]; 32 g ai/ha,100
same,"Plant response rating: Watergrass, Late",[10]; 64 g ai/ha,100
same,"Plant response rating: Watergrass, Late",[10]; 125 g ai/ha,100
same,"Plant response rating: Watergrass, Late",[10]; 250 g ai/ha,100
same,"Plant response rating: Flatsedge, Rice",[11]; 32 g ai/ha,0
same,"Plant response rating: Flatsedge, Rice",[11]; 64 g ai/ha,0
same,"Plant response rating: Flatsedge, Rice",[11]; 125 g ai/ha,0
same,"Plant response rating: Flatsedge, Rice",[11]; 250 g ai/ha,0
same,"Plant response rating: Sedge, Umbrella",[12]; 32 g ai/ha,0
same,"Plant response rating: Sedge, Umbrella",[12]; 64 g ai/ha,0
same,"Plant response rating: Sedge, Umbrella",[12]; 125 g ai/ha,0
same,"Plant response rating: Sedge, Umbrella",[12]; 250 g ai/ha,0
same,"Plant response rating: Rice, Transplanted",[13]; 32 g ai/ha,0
same,"Plant response rating: Rice, Transplanted",[13]; 64 g ai/ha,15
same,"Plant response rating: Rice, Transplanted",[13]; 125 g ai/ha,25
same,"Plant response rating: Rice, Transplanted",[13]; 250 g ai/ha,40
same,"Plant response rating: Rice, Water Seeded",[14]; 32 g ai/ha,0
same,"Plant response rating: Rice, Water Seed.",[14]; 64 g ai/ha,40
same,"Plant response rating: Rice, Water Seed.",[14]; 125 g ai/ha,50
same,"Plant response rating: Rice, Water Seeded",[14]; 250 g ai/ha,75
